The target in experiment [1] is human GLP-1 receptor (hGLP-1R) (Homo sapiens, UniProt P43220). The experiment in a line: cAMP production (HTRF) in CHO cells expressing hGLP-1R. Type of experiment: cell-based. Also noted: expressed in transfected cells. Conditions: for pEC50: Table 7, peptides modified at position 20, cAMP in CHO hGLP-1R cells, geometric mean, read-out: hGLP-1R EC50; for % Relative Potency Ratio: Table 7, % GLP-1R activity relative to GLP-1 / % GlucR activity relative to glucagon. A digest of the protocol:
(§1)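 Potency values represent EC50 from 4-parameter logistic curves of HTRF % Delta F signal. Receptor-expressing CHO cells (hGCGR 2×10^5 cells/mL, hGLP-1R 1×10^5 cells/mL) were exposed for 30 min at room temperature before two-step cAMP detection.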

The target of experiment [2] is human glucagon receptor (hGCGR) (Homo sapiens, UniProt P47871). The experiment can be described thus: cAMP production (HTRF) in CHO cells expressing hGCGR. The format is cell-based. Also noted: expressed in transfected cells. Particulars: Table 7, peptides modified at position 20; cAMP in CHO hGCGR cells; geometric mean; read-out: hGluc-R EC50. The method, boiled down:
as §1
A general note: Changes in cAMP serve as a functional read-out for many G protein-coupled receptors.

The values below come from patent US20250353891A1 (MEDIMMUNE LIMITED, priority 2022, published 2025).

pEC50: −log10 of the molar value. Starred links: 1 amine or outer side, 2 acyl side, 3 side chain; linkers in the order of their positions; H or OH if unused. Non-standard residues stand in square brackets, D forms with d. Residues, ends and D or L forms follow the SMILES beside them. Groups on a side chain read outwards from the residue. *: point of attachment. C18 diacid = O=C(O)CCCCCCCCCCCCCCCCC(=O)*; γGlu = O=C(O)[C@H](CCC(=O)[*:2])N[*:1]; αMeF = C[C@](N)(Cc1ccccc1)C(=O)O; Aib = CC(C)(N)C(=O)O

Chain of human glucagon receptor (hGCGR) (P47871 26-477): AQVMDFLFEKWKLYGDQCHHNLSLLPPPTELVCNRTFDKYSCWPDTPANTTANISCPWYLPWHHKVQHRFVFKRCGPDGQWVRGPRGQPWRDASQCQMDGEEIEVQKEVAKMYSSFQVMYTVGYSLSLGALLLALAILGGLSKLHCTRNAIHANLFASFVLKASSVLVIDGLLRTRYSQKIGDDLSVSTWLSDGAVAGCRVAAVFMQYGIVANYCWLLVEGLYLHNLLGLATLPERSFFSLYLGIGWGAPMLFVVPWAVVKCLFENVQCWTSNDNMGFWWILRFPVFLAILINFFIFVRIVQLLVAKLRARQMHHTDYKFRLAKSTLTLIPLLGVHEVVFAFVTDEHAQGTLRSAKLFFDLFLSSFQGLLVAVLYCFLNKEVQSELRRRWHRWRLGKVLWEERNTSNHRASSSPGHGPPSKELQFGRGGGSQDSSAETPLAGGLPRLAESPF
Chain of human GLP-1 receptor (hGLP-1R) (P43220 24-463): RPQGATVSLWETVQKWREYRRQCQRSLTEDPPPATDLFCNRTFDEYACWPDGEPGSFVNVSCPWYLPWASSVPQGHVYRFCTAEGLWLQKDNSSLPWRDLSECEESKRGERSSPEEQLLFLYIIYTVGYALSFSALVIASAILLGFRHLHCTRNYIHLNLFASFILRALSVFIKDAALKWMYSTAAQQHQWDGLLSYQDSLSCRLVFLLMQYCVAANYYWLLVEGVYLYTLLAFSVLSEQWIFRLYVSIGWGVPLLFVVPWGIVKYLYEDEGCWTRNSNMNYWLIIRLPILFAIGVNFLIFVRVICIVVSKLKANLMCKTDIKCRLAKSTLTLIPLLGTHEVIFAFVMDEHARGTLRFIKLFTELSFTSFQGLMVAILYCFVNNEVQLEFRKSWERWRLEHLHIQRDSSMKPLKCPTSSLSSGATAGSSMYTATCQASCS

Regarding `CC(C)C[C@H](NC(=O)[C@H](Cc1c[nH]c2ccccc12)NC(=O)[C@H](CCCNC(=N)N)NC(=O)[C@@H](NC(=O)[C@H](Cc1ccccc1)NC(=O)[C@H](CC(=O)O)NC(=O)[C@H](CCCCNC(=O)COCCOCCNC(=O)COCCOCCNC(=O)CC[C@H](NC(=O)CCCCCCCCCCCCCCCCC(=O)O)C(=O)O)NC(=O)[C@H](C)NC(=O)[C@H](CCCNC(=N)N)NC(=O)[C@H](CCCNC(=N)N)NC(=O)[C@H](CO)NC(=O)[C@H](CC(=O)O)NC(=O)[C@H](CC(C)C)NC(=O)[C@](C)(Cc1ccccc1)NC(=O)[C@H](CCCCN)NC(=O)[C@H](CO)NC(=O)[C@@H](NC(=O)[C@H](CC(=O)O)NC(=O)[C@H](CO)NC(=O)[C@@H](NC(=O)[C@H](Cc1ccccc1)NC(=O)[C@@H](NC(=O)CNC(=O)[C@H](CCC(N)=O)NC(=O)C(C)(C)NC(=O)[C@@H](N)Cc1c[nH]cn1)[C@@H](C)O)[C@@H](C)O)C(C)C)C(C)C)C(=O)N[C@@H](CC(C)C)C(=O)N[C@@H](CCC(=O)O)C(=O)NC(C)(C)C(=O)NCC(=O)O` [Peptide 331], the pEC50 (commonly the negative decadic logarithm of the EC50, by convention in mol/L) in experiment [1] is 10.20; in experiment [2] it was 10.18. Further, in experiment [1], the “% Relative Potency Ratio” value came out at 2.1.
`CC(C)C[C@H](NC(=O)[C@H](Cc1c[nH]c2ccccc12)NC(=O)[C@H](CCC(N)=O)NC(=O)[C@@H](NC(=O)[C@H](Cc1ccccc1)NC(=O)[C@H](CC(=O)O)NC(=O)[C@H](CCCCNC(=O)COCCOCCNC(=O)COCCOCCNC(=O)CC[C@H](NC(=O)CCCCCCCCCCCCCCCCC(=O)O)C(=O)O)NC(=O)[C@H](C)NC(=O)[C@H](CCCNC(=N)N)NC(=O)[C@H](CCCNC(=N)N)NC(=O)[C@H](CO)NC(=O)[C@H](CC(=O)O)NC(=O)[C@H](CC(C)C)NC(=O)[C@](C)(Cc1ccccc1)NC(=O)[C@H](CCCCN)NC(=O)[C@H](CO)NC(=O)[C@@H](NC(=O)[C@H](CC(=O)O)NC(=O)[C@H](CO)NC(=O)[C@@H](NC(=O)[C@H](Cc1ccccc1)NC(=O)[C@@H](NC(=O)CNC(=O)[C@H](CCC(N)=O)NC(=O)C(C)(C)NC(=O)[C@@H](N)Cc1c[nH]cn1)[C@@H](C)O)[C@@H](C)O)C(C)C)C(C)C)C(=O)N[C@@H](CC(C)C)C(=O)N[C@@H](CCC(=O)O)C(=O)NC(C)(C)C(=O)NCC(=O)O` [Peptide 332]: the pEC50 in experiment [1] is 10.11; in experiment [2], 10.23. Moreover, the “% Relative Potency Ratio” value in experiment [1] was 1.5.
Taken in the same sequence, the figures for `CC(C)C[C@H](NC(=O)[C@H](Cc1c[nH]c2ccccc12)NC(=O)[C@H](CCC(N)=O)NC(=O)[C@@H](NC(=O)[C@H](Cc1ccccc1)NC(=O)[C@H](CC(=O)O)NC(=O)[C@H](CCCCNC(=O)COCCOCCNC(=O)COCCOCCNC(=O)CC[C@H](NC(=O)CCCCCCCCCCCCCCCCC(=O)O)C(=O)O)NC(=O)[C@H](C)NC(=O)[C@H](CCCNC(=N)N)NC(=O)[C@H](CCCNC(=N)N)NC(=O)[C@H](CO)NC(=O)[C@H](CC(=O)O)NC(=O)[C@H](CC(C)C)NC(=O)[C@](C)(Cc1ccccc1)NC(=O)[C@H](CCCCN)NC(=O)[C@H](CO)NC(=O)[C@@H](NC(=O)[C@H](CC(=O)O)NC(=O)[C@H](CO)NC(=O)[C@@H](NC(=O)[C@H](Cc1ccccc1)NC(=O)[C@@H](NC(=O)CNC(=O)[C@H](CCC(N)=O)NC(=O)C(C)(C)NC(=O)[C@@H](N)Cc1c[nH]cn1)[C@@H](C)O)[C@@H](C)O)C(C)C)C(C)C)C(=O)N[C@@H](CC(C)C)C(=O)NC(C)(C)C(=O)N[C@H](C(=O)N[C@@H](CCC(=O)O)C(=O)O)[C@@H](C)O` [Peptide 333] were 9.87, 9.67 and 3.1.
On the same counts, the results for `CC(C)C[C@H](NC(=O)[C@H](Cc1c[nH]c2ccccc12)NC(=O)[C@H](CCC(N)=O)NC(=O)[C@@H](NC(=O)[C@H](Cc1ccccc1)NC(=O)[C@H](CC(=O)O)NC(=O)[C@H](CCCCNC(=O)CC[C@H](NC(=O)CCCCCCCCCCCCCCCCC(=O)O)C(=O)O)NC(=O)[C@H](C)NC(=O)[C@H](CCCNC(=N)N)NC(=O)[C@H](CCCNC(=N)N)NC(=O)[C@H](CO)NC(=O)[C@H](CC(=O)O)NC(=O)[C@H](CC(C)C)NC(=O)[C@](C)(Cc1ccccc1)NC(=O)[C@H](CCCCN)NC(=O)[C@H](CO)NC(=O)[C@H](Cc1ccc(O)cc1)NC(=O)[C@H](CC(=O)O)NC(=O)[C@H](CO)NC(=O)[C@@H](NC(=O)[C@H](Cc1ccccc1)NC(=O)[C@@H](NC(=O)CNC(=O)[C@H](CCC(N)=O)NC(=O)C(C)(C)NC(=O)[C@@H](N)Cc1c[nH]cn1)[C@@H](C)O)[C@@H](C)O)C(C)C)C(=O)N[C@@H](C)C(=O)NC(C)(C)C(=O)N[C@@H](CCC(=O)O)C(=O)O` [Peptide 334] are 9.60, 9.34 and 3.7.
Consider `CC(C)C[C@H](NC(=O)[C@H](Cc1c[nH]c2ccccc12)NC(=O)[C@H](CCC(N)=O)NC(=O)[C@@H](NC(=O)[C@H](Cc1ccccc1)NC(=O)[C@H](CC(=O)O)NC(=O)[C@H](CCCCNC(=O)CC[C@H](NC(=O)CCCCCCCCCCCCCCCCC(=O)O)C(=O)O)NC(=O)[C@H](C)NC(=O)[C@H](CCCNC(=N)N)NC(=O)[C@H](CCCNC(=N)N)NC(=O)[C@H](CO)NC(=O)[C@H](CC(=O)O)NC(=O)[C@H](CC(C)C)NC(=O)[C@](C)(Cc1ccccc1)NC(=O)[C@H](CCCCN)NC(=O)[C@H](CO)NC(=O)[C@H](Cc1ccc(O)cc1)NC(=O)[C@H](CC(=O)O)NC(=O)[C@H](CO)NC(=O)[C@@H](NC(=O)[C@H](Cc1ccccc1)NC(=O)[C@@H](NC(=O)CNC(=O)[C@H](CCC(N)=O)NC(=O)C(C)(C)NC(=O)[C@@H](N)Cc1c[nH]cn1)[C@@H](C)O)[C@@H](C)O)C(C)C)C(=O)N[C@@H](CC(C)C)C(=O)N[C@@H](CCC(=O)O)C(=O)NC(C)(C)C(=O)NCC(=O)O` [Peptide 335], for which, in experiment [1], the pEC50 was 8.97 and the “% Relative Potency Ratio” value is listed as 0.6. In addition, in experiment [2], the pEC50 is 9.51.
On the same counts, the results for `CC[C@H](C)[C@H](NC(=O)[C@H](CC(C)C)NC(=O)[C@H](Cc1c[nH]c2ccccc12)NC(=O)[C@H](CCC(N)=O)NC(=O)[C@@H](NC(=O)[C@H](Cc1ccccc1)NC(=O)[C@H](CC(=O)O)NC(=O)[C@H](CCCCNC(=O)CC[C@H](NC(=O)CCCCCCCCCCCCCCCCC(=O)O)C(=O)O)NC(=O)[C@H](C)NC(=O)[C@H](CCCNC(=N)N)NC(=O)[C@H](CCCNC(=N)N)NC(=O)[C@H](CO)NC(=O)[C@H](CC(=O)O)NC(=O)[C@H](CC(C)C)NC(=O)[C@](C)(Cc1ccccc1)NC(=O)[C@H](CCCCN)NC(=O)[C@H](CO)NC(=O)[C@H](Cc1ccc(O)cc1)NC(=O)[C@H](CC(=O)O)NC(=O)[C@H](CO)NC(=O)[C@@H](NC(=O)[C@H](Cc1ccccc1)NC(=O)[C@@H](NC(=O)CNC(=O)[C@H](CCC(N)=O)NC(=O)C(C)(C)NC(=O)[C@@H](N)Cc1c[nH]cn1)[C@@H](C)O)[C@@H](C)O)C(C)C)C(=O)N[C@@H](CO)C(=O)N[C@@H](CCC(=O)O)C(=O)O` [Peptide 336] (H-H[Aib]QGTFTSDYSK[αMeF]LDSRRAK([γGlu-C18 diacid])DFVQWLISE-OH; N-terminus assumed) are 9.20, 1.0 and 9.52.
On the same counts, the results for `CC(C)C[C@H](NC(=O)[C@H](Cc1c[nH]c2ccccc12)NC(=O)[C@H](CCC(N)=O)NC(=O)[C@@H](NC(=O)[C@H](Cc1ccccc1)NC(=O)[C@H](CC(=O)O)NC(=O)[C@H](CCCCNC(=O)CC[C@H](NC(=O)CCCCCCCCCCCCCCCCC(=O)O)C(=O)O)NC(=O)[C@H](C)NC(=O)[C@H](CCCNC(=N)N)NC(=O)[C@H](CCCNC(=N)N)NC(=O)[C@H](CO)NC(=O)[C@H](CC(=O)O)NC(=O)[C@H](CC(C)C)NC(=O)[C@](C)(Cc1ccccc1)NC(=O)[C@H](CCCCN)NC(=O)[C@H](CO)NC(=O)[C@H](Cc1ccc(O)cc1)NC(=O)[C@H](CC(=O)O)NC(=O)[C@H](CO)NC(=O)[C@@H](NC(=O)[C@H](Cc1ccccc1)NC(=O)[C@@H](NC(=O)CNC(=O)[C@H](CCC(N)=O)NC(=O)C(C)(C)NC(=O)[C@@H](N)Cc1c[nH]cn1)[C@@H](C)O)[C@@H](C)O)C(C)C)C(=O)N[C@@H](CC(C)C)C(=O)NC(C)(C)C(=O)N[C@H](C(=O)O)[C@@H](C)O` [Peptide 337] are 9.40, 0.4 and 10.05.
Taken in the same sequence, the figures for `CC(C)C[C@H](NC(=O)[C@H](Cc1c[nH]c2ccccc12)NC(=O)[C@H](CCC(N)=O)NC(=O)[C@@H](NC(=O)[C@H](Cc1ccccc1)NC(=O)[C@H](CC(=O)O)NC(=O)[C@H](CCCCNC(=O)CC[C@H](NC(=O)CCCCCCCCCCCCCCCCC(=O)O)C(=O)O)NC(=O)[C@H](C)NC(=O)[C@H](CCCNC(=N)N)NC(=O)[C@H](CCCNC(=N)N)NC(=O)C(C)(C)NC(=O)[C@H](CC(=O)O)NC(=O)[C@H](CC(C)C)NC(=O)[C@](C)(Cc1ccccc1)NC(=O)[C@H](CCCCN)NC(=O)[C@H](CO)NC(=O)[C@H](Cc1ccc(O)cc1)NC(=O)[C@H](CC(=O)O)NC(=O)[C@H](CO)NC(=O)[C@@H](NC(=O)[C@H](Cc1ccccc1)NC(=O)[C@@H](NC(=O)CNC(=O)[C@H](CCC(N)=O)NC(=O)C(C)(C)NC(=O)[C@@H](N)Cc1c[nH]cn1)[C@@H](C)O)[C@@H](C)O)C(C)C)C(=O)N[C@@H](CC(C)C)C(=O)NC(C)(C)C(=O)N[C@H](C(=O)O)[C@@H](C)O` [Peptide 338] were 9.51, 0.2 and 10.59.
